Assays:
Format in all cases: cell-based, human
SW982 cells = assay: Adherent cell line long-term (14-day) proliferation assay, CellTiter-Glo; conditions: SW982, 14-day long-term proliferation assay
Method: (§1) 96-well plating for 7 day assay: For each adherent cell line, plated cells in a volume of 100 μL in 96-well plates, to be treated in triplicate, either in the evening (to treat with compound the following day) or in morning (to treat with compound in the evening), to allow cells to attach to plates before compound treatment.
(§2) 6-well plates to be split for 7-14 day assay: Plated 2 mL of cells at the correct density in each well of the 6-well plate. Calculated the correct density from the 96-well plate growth curve by multiplying the 96-well density by 30. The factor 30 came from growth area of the 6-well plate divided by the growth area of the 96-well plate (9.5 cm^2/0.32 cm^2=29.7, rounded up to 30), which corresponds to 30-fold more surface area in a 6-well vs. a 96-well plate.
(§3) Day 0: Treated with compound or DMSO by removing media and adding back either 100 μL (for 96-well plate) or 2 mL (for 6-well plate) media with the correct dilutions of compound/DMSO. Table 1 includes an example of 96-well plate map. Plates were incubated for 96 hours.
(§4) Read one 96-well plate with CellTiter-Glo® for a Day 0 reading (media change not necessary for this plate).
(§5) Day 4: Read one 96-well plate with CellTiter-Glo® for a Day 4 reading (media change not necessary for this plate before reading). Replaced media with fresh media containing compound on Day 4 in 96-well plates and 6-well plates.
(§6) Day 7: read final 96-well plate with CellTiter-Glo®.
(§7) Counted individual wells of 6-well plates, and replated cells to initial plating density in 96-well plates, as described above.
(§8) Repeated steps for Days 0-7 for Days 7-14 of the proliferation assay.
(§9) Particularly, approximately 12 hours before compound treatment, HS-SY-II or SW982 cells were plated at the density of 24,000 cells/well and 7,500 cells/well, respectively in 6-well plates. On day 0, cells were treated with either DMSO or compound starting at 10 μmol/L and decreasing in fourfold dilutions. On day 7, the cells in 6-well plates were trypsinized, counted by TC10 automated cell counter (Bio-Rad, Richmond, Calif.) and replated at the density of 800 cells/well and 250 cells/well for HS-SY-II and SW982, respectively in 96-well plates in triplicate. The cells were allowed to adhere to the plate overnight, and treated with either DMSO or compound as on Day 0. On days 0, 7, 11, and 14, cell viability was determined by CellTiter-Glo® Luminescent Cell Viability Assay (Promega) with EnVision 2103 Multilabel Reader (Perkin-Elmer, Wellesley, Mass.). Compound/media was changed with new one on Day 4 and 11. The ratios of the measured values on Days 7, 11, and 14 to that of day 7 were used to plot proliferation from day 7 to day 14, and to calculate the IC50 values on Day 14. […]

HS-SY-II cells = assay: as above; conditions: 14-day long-term proliferation assay
Method: as §1, §2, §3, §4, §5, §6, §7, §8, §9

[1] = tested on: ATF3, EGR1, CDKN2A expression in HS-SY-II cells; assay: Gene expression changes in vitro by RT-PCR, normalized to GAPDH; set-up: key to ATF3 expression change, significance 0 uM vs. / EGR1 expression change, significance 0 uM vs. / CDKN2A expression change, significance 0 uM vs.: *: Asterisks mean significant changes compared to levels of 0 μM-treated groups.; **: Asterisks mean significant changes compared to levels of 0 μM-treated groups.; ***: Asterisks mean significant changes compared to levels of 0 μM-treated groups.; ****: Asterisks mean significant changes compared to levels of 0 μM-treated groups; conditions: for ATF3 expression change, significance 0 uM vs. / CDKN2A expression change, significance 0 uM vs. / EGR1 expression change, significance 0 uM vs.: HS-SY-II
Method: (§10) HS-SY-II and SW982 cells were treated with EZH2 inhibitors (Compound A or EPZ-011989) and collected at the indicated time points. Total RNA isolation and cDNA synthesis were performed using the TaqMan Gene Expression Cells-to-CT kit (4399002, Life technologies) according to the manufacturer's protocol. ATF3, EGR1, CDKN2A and GAPDH expression were analyzed by using the TaqMan Gene Expression Assays (Life technologies, 4331182) and the TaqMan Probes (Hs00231069_m1, Hs00152928_m1, Hs00233365_m1, and Hs99999905_m1, respectively).

[2] = tested on: ATF3, EGR1 expression in SW982 cells; assay: as above; set-up: key to EGR1 expression change, significance 0 uM vs.: *: Asterisks mean significant changes compared to levels of 0 μM-treated groups.; **: Asterisks mean significant changes compared to levels of 0 μM-treated groups.; ***: Asterisks mean significant changes compared to levels of 0 μM-treated groups.; ****: Asterisks mean significant changes compared to levels of 0 μM-treated groups
Method: as §10

Row | Compound | sensitivity of cell proliferation (SW982 cells) | sensitivity of cell proliferation (HS-SY-II cells) | ATF3 and EGR1 expression ([1]; HS-SY-II in vitro culture) | CDKN2A expression ([1]; HS-SY-II in vitro culture) | ATF3 expression change, significance 0 uM vs. ([1]; 0.1 uM, day 4) | CDKN2A expression change, significance 0 uM vs. ([1]; 0.1 uM, day 4) | EGR1 expression change, significance 0 uM vs. ([1]; 0.1 uM, day 4) | ATF3 expression change, significance 0 uM vs. ([1]; 1 uM, day 2) | CDKN2A expression change, significance 0 uM vs. ([1]; 1 uM, day 2) | ATF3 expression change, significance 0 uM vs. ([1]; 1 uM, day 4) | CDKN2A expression change, significance 0 uM vs. ([1]; 1 uM, day 4) | EGR1 expression change, significance 0 uM vs. ([1]; 1 uM, day 4) | ATF3 expression change, significance 0 uM vs. ([1]; 1 uM, day 7) | CDKN2A expression change, significance 0 uM vs. ([1]; 1 uM, day 7) | EGR1 expression change, significance 0 uM vs. ([1]; 1 uM, day 7) | EGR1 expression change, significance 0 uM vs. ([2]; SW 982, 0.1 uM, day 2) | EGR1 expression change, significance 0 uM vs. ([2]; SW 982, 0.1 uM, day 4) | EGR1 expression change, significance 0 uM vs. ([2]; SW 982, 1 uM, day 7) | ATF3 and EGR1 expression ([2]; SW982 in vitro culture)
1 | CCN(c1cc(-c2ccc(CN3CCOCC3)cc2)cc(C(=O)NCc2c(C)cc(C)[nH]c2=O)c1C)[C@H]1CC[C@H](N(C)C)CC1 [Compound E] | did not | high sensitivity |  |  |  |  |  |  |  |  |  |  |  |  |  |  |  |  | 
2 | CCN(c1cc(C#CCN2CCOCC2)cc(C(=O)NCc2c(C)cc(C)[nH]c2=O)c1C)C1CCC(N(C)CCOC)CC1 (stereo not shown) [EPZ-011989] |  |  | upregulated | Dose- and time-dependent CDKN2A upregulation | ** | **** | ** | * | *** | * | **** | ** | ** | **** | ** | * | ** | * | not in SW982

— patent US10946024B2, “Method for treating cancer” (Epizyme, Inc., priority 2014, dated 2021)
